Laboratory results published in article PMC6572184, “New γ-Halo-δ-lactones and δ-Hydroxy-γ-lactones with Strong Cytotoxic Activity” (Molecules, 2019).
Where two headings read alike, the source gives them in different places.

What was measured:
[1] = system: Escherichia coli ATCC 8739; test: Bactericidal activity, CFU counting method; assay type: cell-based; conditions: E. coli ATCC 8739; for Number of CFU/mL (× 10^7): 18 h at 37 °C, Control 9.47, Control with DMSO 9.30; for less CFU/mL (reduction of the number of CFU/mL): versus control
Protocol: (§1) The bacterial cultures: Escherichia coli ATCC 8739 and Staphylococcus aureus ATCC 65389 were grown on Luria–Bertani Agar for 18 h at 37 ^∘ C. The strain suspension was prepared in 0.85% saline, with an optical density equivalent to a 0.5 McFarland standard. Next, the following mixtures were prepared: 180 μ L of sterile enriched broth (BTL), 10 μ L of the bacterial suspension and 10 μ L of the tested compound (range 0.1–50 μ g/mL) solubilized in DMSO. As a negative control, only DMSO was added. As a sterility control, 180 μ L of BTL and 20 μ L saline were used. The microtiter plate was incubated at 37 ^∘ C for 18 h. The colony forming unit (CFU) method was used to evaluate the microbial population. The experiment was repeated three times. Gentamicin was used as the reference antibiotic.

[2] = system: Staphylococcus aureus ATCC 65389; test: Bactericidal activity, CFU counting method; assay type: cell-based; conditions: S. aureus ATCC 65389; 18 h at 37 °C; Control 21.36, Control with DMSO 20.85
Protocol: as §1

[3] = system: AGS cell lines (human gastric adenocarcinoma); test: MTT reduction cytotoxicity assay; assay type: cell-based; conditions: for mean percentage of viable cells ± SD: 24 h
Protocol: (§2) Cell cultures: The L929 mouse fibroblasts and human gastric adenocarcinoma cell line AGS were used for in vitro cytotoxicity assays. The cells were maintained under standard conditions (37 ^∘ C, 5% CO 2 ) in 25 cm^2 tissue culture flasks in RPMI-1640 medium supplemented with 10% fetal bovine serum (FBS) and antibiotics: 100 U/mL penicillin and 100 μ g/mL streptomycin. The cell suspension containing 10 ^8 cells in 1 mL, was obtained by treatment of confluent monolayers with 0.25% trypsin solution, washed and subcultured. Cell cultures were supplemented with medium to maintain them in log phase growth. The viability of the cells was assessed by exclusion of trypan blue dye.
(§3) Measurements of cellular metabolic activity and global growth inhibition: L929 cells were seeded into 96-well plates (2 × 10 ^5 cells/well) for 24 h, at 37 ^∘ C, 5% CO2 . Tested compounds 5a–c, 6a–c, 7a–c, 8a–c, 9b,c, 10b,c, 12a and 13a were diluted serially in RPMI-1640 medium in concentrations of 50, 20, 10, 5, 0.5 and 0.1 μ g/mL, added to the cells (100 μ L/well), and incubated under standard conditions for 24 h. The potential harmful effect of lactones on L929 and AGS cells was assessed by the ability of the cells to reduce 3-(4,5-dimethylthiazol-2-yl)-2,5-diphenyltetrazolium bromide (MTT) to formazan. The solution of MTT (5 mg/mL in PBS), was added to each well and the plates were incubated for 4h at 37 ^∘ C. Formazan crystals were dissolved with acidic isopropanol (0.1 M HCl in absolute isopropanol) and the plates were read in a plate reader (Victor 2) at 570 nm. The percentage of MTT reduction was calculated by comparing the absorbance of treated cells to that of untreated control cells. Results are expressed as the mean percentage of viable cells ± standard deviation (SD) of four independent experiments. Statistical significance was accepted at a p-value < 0.05.

[4] = system: L929 cell lines (mouse fibroblasts); test: MTT reduction cytotoxicity assay; assay type: cell-based; conditions: 24 h
Protocol: as §2, §3

[5] = Observation of purified γ-iodo-δ-lactone isomers (decomposition, translactonization); assay type: physicochemical; conditions: purified trans,trans and cis,trans γ-iodo-δ-lactones; residue an equimolar mixture of trans and cis hydroxylactones
Protocol: Iodolactonization of 4a–c acids was carried out with I2/KI and NaHCO3 in a water/diethyl ether mixture. […] The yield of reactions was in the range of 69–85%. The reaction conditions prevented the direct synthesis of these compounds because the reaction was carried out in an alkaline solution, whereas hydroxylactonization requires an acidic environment. […] and predominantly formed in this reaction. The excess of trans-isomer is usually observed in the synthesis of γ -lactones. However, the reaction initially gave δ -iodo- γ -lactones, which, through a translactonization reaction, were transformed into the final products–hydroxylactones 12a and 13a. This was confirmed by observations of purified isomers trans,trans and cis,trans γ -iodo- δ -lactones 9b and 10b, and 9c and 10c. […] The carbocation was stabilized by the electron lone pairs of the oxygen atom present in the water molecule. The preparation of hydroxylactones from iodolactones has been described thus far only for biotransformation experiments. The synthesis described here allows obtaining these compounds without microorganisms.

[6] = MTT reduction cytotoxicity assay; assay type: cell-based, human; conditions: human, AGS cells (human gastric adenocarcinoma), 24 h, read-out: mean percentage of viable cells ± SD
Protocol: as §2, §3

[7] = MTT reduction cytotoxicity assay; assay type: cell-based, mouse; conditions: mouse, L929 cells (mouse fibroblasts), read-out: mean percentage of viable cells ± SD
Protocol: as §2, §3

[8] = system: gastric cancer AGS cells; parameters: method as in PMID 23792648; conditions: reference anticancer drug; cited from earlier work

Compound	Number of CFU/mL (× 10^7) [1]	Number of CFU/mL (× 10^7) [2]	IC50 [3] [nM]	mean percentage of viable cells ± SD ([3]; 0.1 μg/mL) [%]	mean percentage of viable cells ± SD ([3]; 0.5 μg/mL) [%]	mean percentage of viable cells ± SD ([3]; 5 μg/mL) [%]	mean percentage of viable cells ± SD ([3]; 10 μg/mL) [%]	mean percentage of viable cells ± SD ([3]; 20 μg/mL) [%]	mean percentage of viable cells ± SD ([3]; 50 μg/mL) [%]	mean percentage of viable cells ± SD ([4]; 0.1 μg/mL) [%]	mean percentage of viable cells ± SD ([4]; 0.5 μg/mL) [%]	mean percentage of viable cells ± SD ([4]; 5 μg/mL) [%]	mean percentage of viable cells ± SD ([4]; 10 μg/mL) [%]	mean percentage of viable cells ± SD ([4]; 20 μg/mL) [%]	mean percentage of viable cells ± SD ([4]; 50 μg/mL) [%]	stability of purified isomer (in words) [5]	less CFU/mL (reduction of the number of CFU/mL) [1]	further results
CC1CC(=O)OC(c2ccccc2)C1I (mixture of isomers) [10b, Cis,trans-tetrahydro-5-iodo-4-methyl-6-phenylpyran-2-one]	7.65 × 10^7 CFU/mL	5.92 × 10^7 CFU/mL	1800	58 ± 0.07	43 ± 0.02	37 ± 0.03	16 ± 0.09	14 ± 0.08	10 ± 0.06	25 ± 0.08	20 ± 0.03	15 ± 0.08	7 ± 0.15	5 ± 0.06	1 ± 0.02	rapid decomposition with release of iodine	–	–
CC1CC(=O)OC(c2ccc(F)cc2)C1I (mixture of isomers) [10c, Cis,trans-6-(4-fluorophenyl)-tetrahydro-5-iodo-4-methylpyran-2-one]	2.87 × 10^7 CFU/mL	6.30 × 10^7 CFU/mL	1700	38 ± 0.06	23 ± 0.15	20 ± 0.02	13 ± 0.03	10 ± 0.07	8 ± 0.03	22 ± 0.05	18 ± 0.03	12 ± 0.07	6 ± 0.09	2 ± 0.15	2 ± 0.05	rapid decomposition with release of iodine	70–78%	–
CC1CC(=O)OC(c2ccccc2)C1I (stereo not drawn) [9b, Trans,trans-tetrahydro-5-iodo-4-methyl-6-phenylpyran-2-one]	9.02 × 10^7 CFU/mL	21.25 × 10^7 CFU/mL	–	–	–	–	–	–	–	–	–	–	–	–	–	rapid decomposition with release of iodine	–	viability at 24 h, 0.1 μg/mL ([6]; 0.1 μg/mL): 54 ± 0.15%; viability at 24 h, 0.5 μg/mL ([6]; 0.5 μg/mL): 52 ± 0.15%; viability at 24 h, 5 μg/mL ([6]; 5 μg/mL): 43 ± 0.12%; viability at 24 h, 10 μg/mL ([6]; 10 μg/mL): 26 ± 0.03%; viability at 24 h, 20 μg/mL ([6]; 20 μg/mL): 15 ± 0.06%; viability at 24 h, 50 μg/mL ([6]; 50 μg/mL): 8 ± 0.09%; IC50 ([3]; Homo sapiens): 1400 nM; viability at 24 h, 0.1 μg/mL ([7]; 0.1 μg/mL): 23 ± 0.03%; viability at 24 h, 0.5 μg/mL ([7]; 0.5 μg/mL): 18 ± 0.03%; viability at 24 h, 5 μg/mL ([7]; 5 μg/mL): 13 ± 0.07%; viability at 24 h, 10 μg/mL ([7]; 10 μg/mL): 11 ± 0.06%; viability at 24 h, 20 μg/mL ([7]; 20 μg/mL): 4 ± 0.15%; viability at 24 h, 50 μg/mL ([7]; 50 μg/mL): 1 ± 0.12%; melting point: 107 to 108 °C
CC1CC(=O)OC(c2ccc(F)cc2)C1I (stereo not drawn) [9c, Trans,trans-6-(4-fluorophenyl)-tetrahydro-5-iodo-4-methylpyran-2-one]	2.43 × 10^7 CFU/mL	9.76 × 10^7 CFU/mL	1400	51 ± 0.10	43 ± 0.15	35 ± 0.10	23 ± 0.02	18 ± 0.06	15 ± 0.03	15 ± 0.03	12 ± 0.08	9 ± 0.06	6 ± 0.03	3 ± 0.09	1 ± 0.05	rapid decomposition with release of iodine	70–78%	–
COc1cccc2c1C(=O)c1c(O)c3c(c(O)c1C2=O)C[C@@](O)(C(=O)CO)C[C@@H]3O[C@H]1C[C@H](N)[C@H](O)[C@H](C)O1 [doxorubicin]	–	–	–	–	–	–	–	–	–	–	–	–	–	–	–	–	–	IC50 [8]: 25 nM
